Data set [1] concerns bovine viral diarrhea virus (BVDV). The data set is described as follows: anti-BVDV drug screening assay (CPE inhibition, MTS staining). The format is cell-based. The settings on record: for EC50: Bovine viral diarrhea virus isolates and strains, 144 h, read-out: MDBK/BVDV EC50; for TI (TC50/EC50): therapeutic index, MDBK TC50 / BVDV EC50. The method, then:
To assess the effectiveness of the pyrimidinedione derivative used in the present invention as a drug for preventing or treating hepatitis C, an anti-BVDV drug screening assay was conducted with bovine viral diarrhea virus (BVDV). BVDV, a virus having a genome, reproduction cycle and infection type similar to hepatitis C virus, was employed because hepatitis C virus can not be subjected to […] cultivation.
(§1) One day before the screening, MDBK cell line (Mardin-Darby bovine kidney, ATTC CCL22) which had been subcultured previously was trypsinized and spread on a plate, followed by counting the cell colonies formed. Then, equal amount of DMEM (Dulbecco's Modified Eagle's Medium) and Ham's F-12 were mixed, and 10% fetal bovine serum was added to the resulting mixture to prepare a tissue culture medium. The MDBK cells were inoculated to the medium at a concentration of 6×10^4 cells/ml, and then the resulting cell solution was added to a 96-well flat-bottomed plate in an amount of 100 μl per well.
Meanwhile, BVDV (ATCC VR534), which had been stored in a −80° C. freezer at a pre-determined concentration, was transferred to a biological safety cabinet and allowed to thaw at room temperature. The virus was diluted with the tissue culture medium in an sufficient amount for the virus in each well to induce 85 to 95% cell death 6 days after the virus infection.
(§2) Specified pyrimidinedione derivatives (SAMJIN Pharmaceuticals) were prepared as test compounds and a conventional drug for treating hepatitis C, Ribavirin (Sigma) was used as a comparative drug. Each of the test compounds was dissolved in DMSO to prepare a sample solution. Then, the resulting sample solution was diluted with a mixture prepared by mixing equal amount of DMEM and Ham's F-12 in accordance with the three one-log series dilution to prepare sample dilutes.
(§3) One day after adding MDBK cells to the 96-well plate, the culture solution on the plate was removed and each of the sample dilutes obtained step 2 was added thereto, adjusting the final concentration thereof to 1 to 100 μg/ml. The comparative drug, Ribavirin, was added to each of the control wells of the palte at a concentration of 1 to 100 μg/ml.
(§4) The well-plate comprising ‘cell control group well’ containing MDBK cell only; ‘virus control well’ containing MDBK cell and BVDV virus; ‘drug toxicity control well’ containing MDBK cell and sample compounds for assessing the cell toxicity of each sample; ‘drug calorimetric control well’ containing only one of the sample compounds; and ‘experimental group well’ containing MDBK cell, BVDV virus and one of the sample compounds.
(§5) The well-plate had been placed in a 5% CO2 incubator at 37° C. for 6 days, and then, analyzed with Cell Proliferation Assay kit (CellTiter96® AQUEOUS one solution, Promega). The analysis involves the step of counting live cells by a colorimetric method and the kit contains MTS, a new tetrazolium compound which forms a stable solution when the test compounds are added, and PES, an electron coupling agent. In a cell having vigorous metabolism, NADPH or NADH generated by mitochodrial dehydrogenase renders the soluble MTS to a form of […] formazan crystals. Therefore, the amount of formazan crystal is directly proportional to the number of live cells in a medium.
(§6) The CellTiter96® AQUEOUS one solution reagent of 10 μl was added to each well of the plate and cultivated in a incubator at 37° C. for 4 hours. Then, the plate was covered with an adhesive plate sealer, mixing formazan crystals. Absorbance of each well was measured by Molecular Devices Vmax plate reader (Molecular Devices) at 490 nm.
The toxicity of each sample compound was analyzed with a in-house computer program and the cytopathic effect (CPE), followed by calculating % cell activity, therapeutic Index (TI). […]

Data set [2] in a line: drug toxicity control in uninfected MDBK cells (MTS staining). Format: cell-based. To be noted: bovine. The method, then: as §1, §2, §3, §4, §5, §6
The toxicity of each sample compound was analyzed with a in-house computer program and the cytopathic effect (CPE), followed by calculating % cell activity, therapeutic Index (TI).
In table 2, EC50 means the dosage at which the desired response is present for 50% of the population, i.e., the concentration of the sample compounds at which the BVDV infection was inhibited for 50% of MDBK cells; TC50 means the dosage at which cell death is induced for 50% of the population, i.e., the cytotoxicity of the sample compounds for MDBK cells. TI (TC50/EC50) means a comparison of the amount of a therapeutic agent that causes the therapeutic effect to the amount that causes toxic effects. Quantitatively, it is the ratio given by the dose required to produce the toxic effect divided by the therapeutic dose.

Where [3] appears, read: concentration at which BVDV infection was inhibited for 50% of MDBK cells, 6 days, MTS.

Like-named read-outs stand apart in the source and are kept apart here. Some results are limits rather than exact numbers.

As for `Cc1cc(C)cc(Sc2c(C(C)C)c(=O)[nH]c(=O)n2CC2CCC2)c1` [Sample 1c, 1-cyclobutylmethyl-6-(3,5-dimethyl-phenylsulfanyl)-5-isopropyl-1H-pyrimidine-2,4-dione], the EC50 in data set [1] (setting [3]) came out at 1.44 µM. For the same compound, in data set [1], the “TI (TC50/EC50)” value is given as 4.58. In data set [2], this compound registered a CC50 at 6 days of 6.6 µM.

In the case of `CC(C)c1c(Sc2ccccc2)n(CC2CC=CC2)c(=O)[nH]c1=O` [Sample 1j, 1-cyclopent-3-enymethyl-5-isopropyl-6-phenylsulfanyl-1H-pyrimidine-2,4-dione], the EC50 in data set [1] (setting [3]) was 13.7 µM. Moreover, the “TI (TC50/EC50)” value in data set [1] was over 3.7. In data set [2], this compound gave a CC50 at 6 days of over 50 µM.

Consider `Cc1cc(C)cc(Oc2c(C(C)C)c(=O)[nH]c(=O)n2CC2=CCCC2)c1` [Sample 1g, 1-cyclopent-1-enymethyl-6-(3,5-dimethyl-phenoxy)-5-isopropyl-1H-pyrimidine-2,4-dione], for which the EC50 in data set [1] (setting [3]) stood at 20.1 µM. Besides, the “TI (TC50/EC50)” value in data set [1] is reported as over 2.5. In data set [2], this compound came in with a CC50 at 6 days of over 50 µM.

`Cc1cc(C)cc(C(=O)c2c(C(C)C)c(=O)[nH]c(=O)n2CC2=CCCC2)c1` [Sample 1i, 1-cyclopent-1-enymethyl-6-(3,5-dimethyl-benzoyl)-5-isopropyl-1H-pyrimidine-2,4-dione]: the EC50 in data set [1] (setting [3]) turned out to be 1.36 µM. Besides, the “TI (TC50/EC50)” value in data set [1] was 15.0. The same compound registered a CC50 at 6 days in data set [2] of 20.5 µM.

Regarding `Cc1cc(C)cc(Sc2c(C(C)C)c(=O)[nH]c(=O)n2CC2CCCC2)c1` [Sample 1d, 1-cyclopentylmethyl-6-(3,5-dimethyl-phenylsulfanyl)-5-isopropyl-1H-pyrimidine-2,4-dione], the EC50 in data set [1] (setting [3]) was 13.7 µM. Also, the “TI (TC50/EC50)” value in data set [1] is over 3.7. For the same compound, the CC50 at 6 days in data set [2] was over 50 µM.

Consider `Cc1cc(C)cc(Sc2c(C(C)C)c(=O)[nH]c(=O)n2CC2CCCCC2)c1` [Sample 1k, 1-cyclohexylmethyl-6-(3,5-dimethyl-phenylsulfanyl)-5-isopropyl-1H-pyrimidine-2,4-dione], for which, in data set [1] (setting [3]), the EC50 was found to be 1.29 µM. Further, the “TI (TC50/EC50)” value in data set [1] is reported as 5.11. For the same compound, the CC50 at 6 days in data set [2] worked out at 6.6 µM.

Take `CCc1c(Oc2cc(C)cc(C)c2)n(CC2=CCCC2)c(=O)[nH]c1=O` [Sample 1f, 1-cyolopent-1-enymethyl-6-(3,5-dimethyl-phenoxy)-5-ethyl-1H-pyrimidine-2,4-dione]: in data set [1] (setting [3]), the EC50 was 1.51 µM. The “TI (TC50/EC50)” value in data set [1] is listed as over 66.3. In data set [2], this compound came in with a CC50 at 6 days of over 100 µM.

In the case of `Cc1cc(C)cc(Oc2c(C(C)C)c(=O)[nH]c(=O)n2CCC2C=CCC2)c1` (stereo not drawn) [Sample 1m, 1-(2-cyclopent-2-enyl-ethyl)-6-(3,5-dimethyl-phenoxy)-5-isopropyl-1H-pyrimidine-2,4-dione], the EC50 in data set [1] (MDBK) was determined as 13.4 µM. For the same compound, in data set [1], the “TI (TC50/EC50)” value was over 3.7. This compound also returned a CC50 at 6 days in data set [2] of over 50 µM.

Turning to `CCc1c(C(=O)c2cc(C)cc(C)c2)n(CC2=CCCC2)c(=O)[nH]c1=O` [Sample 1h, 1-cyclopent-1-enymethyl-6-(3,5-dimethyl-benzoyl)-5-ethyl-1H-pyrimidine-2,4-dione], the EC50 in data set [1] (setting [3]) came to 13.9 µM. In addition, the “TI (TC50/EC50)” value in data set [1] was determined as 1.2. This compound also returned a CC50 at 6 days in data set [2] of 17.1 µM.

On to `Cc1cc(C)cc(C(=O)c2c(C(C)C)c(=O)[nH]c(=O)n2CCC2C=CCC2)c1` (stereo not drawn) [Sample 1o, 1-(2-cyclopent-2-enyl-ethyl)-6-(3,5-dimethyl-benzoyl)-5-isopropyl-1H-pyrimidine-2,4-dione], for which the EC50 in data set [1] (MDBK) is 1.86 µM. The “TI (TC50/EC50)” value in data set [1] is reported as 3.73. The compound further gave a CC50 at 6 days in data set [2] of 6.94 µM.

As to `Cc1cc(C)cc(Sc2c(C(C)C)c(=O)[nH]c(=O)n2CC2CC2)c1` [Sample 1a, 1-cyclopropylmethyl-6-(3,5-dimethyl-phenylsulfanyl)-5-isopropyl-1H-pyrimidine-2,4-dione], the EC50 in data set [1] (setting [3]) came to 1.57 µM. Further, in data set [1], the “TI (TC50/EC50)” value is reported as 4.2. The CC50 at 6 days in data set [2] came out at 6.6 µM.

With `Cc1cc(C)cc(Sc2c(C(C)C)c(=O)[nH]c(=O)n2CCC2CCCC2)c1` [Sample 1l, 1-(2-cyclopentyl-ethyl)-6-(3,5-dimethyl-phenylsulfanyl)-5-isopropyl-1H-pyrimidine-2,4-dione], the EC50 in data set [1] (setting [3]) came out at 14 µM. Besides, the “TI (TC50/EC50)” value in data set [1] is recorded as over 3.6. This compound also displayed a CC50 at 6 days in data set [2] of over 50 µM.

With `NC(=O)c1ncn([C@@H]2O[C@H](CO)[C@@H](O)[C@H]2O)n1` [Ribavirin, reference compound], in data set [1] (setting [3]), the EC50 was determined as 1.66 µM. For the same compound, in data set [1], the “TI (TC50/EC50)” value was determined as 4.2. Moreover, the CC50 at 6 days in data set [2] (uninfected MDBK cells (drug toxicity control wells), cytotoxicity for MDBK cells, 6 days, MTS, read-out: MDBK TC50) is 7 µM.

Consider `CCc1c(Oc2cc(C)cc(C)c2)n(CC2CC2)c(=O)[nH]c1=O` [Sample 1b, 1-cyclopropylmethyl-6-(3,5-dimethyl-phenoxy)-5-ethyl-1H-pyrimidine-2,4-dione], for which the EC50 in data set [1] (setting [3]) came to 14.1 µM. For the same compound, the “TI (TC50/EC50)” value in data set [1] was over 7.1. The compound also displayed a CC50 at 6 days in data set [2] of over 100 µM.

Consider `CCc1c(C(=O)c2cc(C)cc(C)c2)n(CC2=CCC(CO)C2)c(=O)[nH]c1=O` (stereo not drawn) [Sample 1p, 6-(3,5-dimethyl-benzoyl)-5-ethyl-1-(4-hydroxymethyl-cyclopent-1-enylmethyl)-1H-pyrimidine-2,4-dione], for which the EC50 in data set [1] (setting [3]) was 15 µM. The “TI (TC50/EC50)” value in data set [1] is recorded as 5.11. In data set [2], this compound gave a CC50 at 6 days of 66 µM.

As for `Cc1cc(C)cc(Sc2c(C(C)C)c(=O)[nH]c(=O)n2CC2=CCCC2)c1` [Sample 1e, 1-cyclopent-1-enymethyl-6-(3,5-dimethyl-phenylsulfanyl)-5-isopropyl-1H-pyrimidine-2,4-dione], the EC50 in data set [1] (setting [3]) was found to be 10.2 µM. For the same compound, the “TI (TC50/EC50)” value in data set [1] is given as over 4.9. The compound further displayed a CC50 at 6 days in data set [2] of over 50 µM.

The values above are taken from patent US7851479B2, “Use of pyrimidinedione derivative for preventing or treating hepatitis C” (priority 2006, dated 2010).
